Laboratory results from patent publication US20150299188A1, “HETEROCYCLIC COMPOUND” (priority 2012, published 2015).

System: FLAP (5-lipoxygenase activating protein)
Test: In vitro binding test: displacement of [3H]-7-chloro-3-(5-((3-fluoropyridin-2-yl)methoxy)-2-methylphenyl)-3,4-dihydroquinazolin-2(1H)-one from Sf9 microsome fractions
Parameters: species or system human and mouse
Conditions: Sf9 microsome fractions expressing FLAP; 100% = radioligand binding with 10 μM sodium 3-(3-(tert-butylsulfanyl)-1-(4-chlorobenzyl)-5-isopropyl-1H-indol-2-yl)-2,2-dimethylpropanoate, 0% = DMSO; test compound concentration not given
Protocol: As an assay buffer, 100 mM Tris-HCl, pH 7.5, 140 mM NaCl, 2 mM EDTA, 0.5 mM dithiothreitol, 5% glycerol, 0.05% Tween20 was used. Sf9 microsome fractions expressing human and mouse FLAPs were dispensed by 50 μL to a 96-well plate at 2 μg/mL. Furthermore, a test compound (25 μL) diluted 4-fold of the final concentration with the assay buffer was added and mixed therewith, and the mixture was incubated at room temperature for 10 min. Furthermore, 120 nM [^3H]-7-chloro-3-(5-((3-fluoropyridin-2-yl)methoxy)-2-methylphenyl)-3,4-dihydroquinazolin-2(1H)-one was added by 25 μL, and mixed therewith, and the mixture was incubated at room temperature for 60 min. Thereafter, the cells were transferred to a 96-well GF/B Unifilter plate with a FilterMate cell harvester, and washed 3 times with a wash buffer (100 mM Tris-HCl pH 7.5, 0.05% Tween20, 200 μL) cooled to 4° C. The GF/B Unifilter plate was dried at 37° C., Microscint 0 was added and measured by TopCount NXT (PerkinElmer). As for the inhibitory activity, the inhibitory rate was calculated wherein the [^3H]-7-chloro-3-(5-((3-fluoropyridin-2-yl)methoxy)-2-methylphenyl)-3,4-dihydroquinazolin-2(1H)-one binding amount in the presence of 10 μM sodium 3-(3-(tert-butylsulfanyl)-1-(4-chlorobenzyl)-5-isopropyl-1H-indol-2-yl)-2,2-dimethylpropanoate was 100%, and the [^3H]-7-chloro-3-(5-((3-fluoropyridin-2-yl)methoxy)-2-methylphenyl)-3,4-dihydroquinazolin-2(1H)-one binding amount in the presence of DMSO was 0%.

SMILES | inhibitory rate (%)
CCOC(=O)c1nccc2c1CN(c1cc3c(cc1Cl)CCC(c1ncccc1F)O3)C(=O)N2 (stereo not drawn) [Example 56, ethyl 3-(6-chloro-2-(3-fluoropyridin-2-yl)-3,4-dihydro-2H-chromen-7-yl)-2-oxo-1,2,3,4-tetrahydropyrido[4,3-d]pyrimidine-5-carboxylate] | 110
O=C1Nc2nccc(C(F)(F)F)c2CN1c1cc2c(cc1Cl)CCC(c1ncccc1F)O2 (stereo not drawn) [Example 57, 3-(6-chloro-2-(3-fluoropyridin-2-yl)-3,4-dihydro-2H-chromen-7-yl)-5-(trifluoromethyl)-3,4-dihydropyrido[2,3-d]pyrimidin-2(1H)-one] | 105
O=C1Nc2ccnc(N3CCOCC3)c2CN1c1cc2c(cc1Cl)CCC(c1ncccc1F)O2 (stereo not drawn) [Example 58, 3-(6-chloro-2-(3-fluoropyridin-2-yl)-3,4-dihydro-2H-chromen-7-yl)-5-(morpholin-4-yl)-3,4-dihydropyrido[4,3-d]pyrimidin-2(1H)-one] | 117
O=C1Nc2cc(N3CCOCC3)nc(C3CC3)c2CN1c1cc2c(cc1Cl)CCC(c1ncccc1F)O2 (stereo not drawn) [Example 59, 3-(6-chloro-2-(3-fluoropyridin-2-yl)-3,4-dihydro-2H-chromen-7-yl)-5-cyclopropyl-7-(morpholin-4-yl)-3,4-dihydropyrido[4,3-d]pyrimidin-2(1H)-one] | 107
Cn1nccc1-c1nccc2c1CN(c1cc3c(cc1Cl)CCC(c1ncccc1F)O3)C(=O)N2 (stereo not drawn) [Example 60, 3-(6-chloro-2-(3-fluoropyridin-2-yl)-3,4-dihydro-2H-chromen-7-yl)-5-(1-methyl-1H-pyrazol-5-yl)-3,4-dihydropyrido[4,3-d]pyrimidin-2(1H)-one] | 113
O=C1Nc2nccc(OCC(F)(F)F)c2CN1c1cc2c(cc1Cl)CCC(c1ncccc1F)O2 (stereo not drawn) [Example 61, 3-(6-chloro-2-(3-fluoropyridin-2-yl)-3,4-dihydro-2H-chromen-7-yl)-5-(2,2,2-trifluoroethoxy)-3,4-dihydropyrido[2,3-d]pyrimidin-2(1H)-one] | 91
Cn1cc(-c2nccc3c2CN(c2cc4c(cc2Cl)CCC(c2ncccc2F)O4)C(=O)N3)cn1 (stereo not drawn) [Example 62, 3-(6-chloro-2-(3-fluoropyridin-2-yl)-3,4-dihydro-2H-chromen-7-yl)-5-(1-methyl-1H-pyrazol-4-yl)-3,4-dihydropyrido[4,3-d]pyrimidin-2(1H)-one] | 100
Cc1cc2c(c(C)n1)CN(c1cc3c(cc1Cl)CCC(c1ncccc1F)O3)C(=O)N2 (stereo not drawn) [Example 63, 3-(6-chloro-2-(3-fluoropyridin-2-yl)-3,4-dihydro-2H-chromen-7-yl)-5,7-dimethyl-3,4-dihydropyrido[4,3-d]pyrimidin-2(1H)-one] | 106
COc1cccnc1C1CCc2cc(Cl)c(N3Cc4c(ccnc4C4CC4)NC3=O)cc2O1 (stereo not drawn) [Example 64, 3-(6-chloro-2-(3-methoxypyridin-2-yl)-3,4-dihydro-2H-chromen-7-yl)-5-cyclopropyl-3,4-dihydropyrido[4,3-d]pyrimidin-2(1H)-one] | 94
O=C1Nc2c(Cl)cnc(C3CC3)c2CN1c1cc2c(cc1Cl)CCC(c1ncccc1F)O2 (stereo not drawn) [Example 65, 8-chloro-3-(6-chloro-2-(3-fluoropyridin-2-yl)-3,4-dihydro-2H-chromen-7-yl)-5-cyclopropyl-3,4-dihydropyrido[4,3-d]pyrimidin-2(1H)-one] | 105

Now from value to compound:

inhibitory rate (%) | SMILES
98 | O=C1Nc2c(ccnc2C(F)(F)F)CN1c1cc2c(cc1Cl)CCC(c1ncccc1F)O2 (stereo not drawn) [Example 66, 3-(6-chloro-2-(3-fluoropyridin-2-yl)-3,4-dihydro-2H-chromen-7-yl)-8-(trifluoromethyl)-3,4-dihydropyrido[3,4-d]pyrimidin-2(1H)-one]
104 | Cc1cc2c(cc1N1Cc3c(ccnc3C(C)C)NC1=O)OC(c1ncccc1F)CC2 (stereo not drawn) [Example 67, 3-(2-(3-fluoropyridin-2-yl)-6-methyl-3,4-dihydro-2H-chromen-7-yl)-5-isopropyl-3,4-dihydropyrido[4,3-d]pyrimidin-2(1H)-one]
113 | O=C1Nc2ccnc(C(F)(F)F)c2CN1c1cc2c(cc1F)CCC(c1ncccc1F)O2 (stereo not drawn) [Example 68, 3-(6-fluoro-2-(3-fluoropyridin-2-yl)-3,4-dihydro-2H-chromen-7-yl)-5-(trifluoromethyl)-3,4-dihydropyrido[4,3-d]pyrimidin-2(1H)-one]
101 | COC(=O)c1cc2c(c(C3CC3)n1)CN(c1cc3c(cc1Cl)CCC(c1ncccc1F)O3)C(=O)N2 (stereo not drawn) [Example 70, methyl 3-(6-chloro-2-(3-fluoropyridin-2-yl)-3,4-dihydro-2H-chromen-7-yl)-5-cyclopropyl-2-oxo-1,2,3,4-tetrahydropyrido[4,3-d]pyrimidine-7-carboxylate]
107 | O=C(O)c1cc2c(c(C3CC3)n1)CN(c1cc3c(cc1Cl)CCC(c1ncccc1F)O3)C(=O)N2 (stereo not drawn) [Example 71, 3-(6-chloro-2-(3-fluoropyridin-2-yl)-3,4-dihydro-2H-chromen-7-yl)-5-cyclopropyl-2-oxo-1,2,3,4-tetrahydropyrido[4,3-d]pyrimidine-7-carboxylic acid]
104 | O=C1Nc2cc(Cl)nc(C3CC3)c2CN1c1cc2c(cc1Cl)CCC(c1ncccc1F)O2 (stereo not drawn) [Example 72, 7-chloro-3-(6-chloro-2-(3-fluoropyridin-2-yl)-3,4-dihydro-2H-chromen-7-yl)-5-cyclopropyl-3,4-dihydropyrido[4,3-d]pyrimidin-2(1H)-one]
109 | O=C1Nc2cc(CO)nc(C3CC3)c2CN1c1cc2c(cc1Cl)CCC(c1ncccc1F)O2 (stereo not drawn) [Example 73, 3-(6-chloro-2-(3-fluoropyridin-2-yl)-3,4-dihydro-2H-chromen-7-yl)-5-cyclopropyl-7-(hydroxymethyl)-3,4-dihydropyrido[4,3-d]pyrimidin-2(1H)-one]
104 | O=C(c1cc2c(c(C3CC3)n1)CN(c1cc3c(cc1Cl)CCC(c1ncccc1F)O3)C(=O)N2)N1CCOCC1 (stereo not drawn) [Example 74, 3-(6-chloro-2-(3-fluoropyridin-2-yl)-3,4-dihydro-2H-chromen-7-yl)-5-cyclopropyl-7-(morpholin-4-ylcarbonyl)-3,4-dihydropyrido[4,3-d]pyrimidin-2(1H)-one]
103 | CC(C)(O)c1cc2c(c(C3CC3)n1)CN(c1cc3c(cc1Cl)CCC(c1ncccc1F)O3)C(=O)N2 (stereo not drawn) [Example 75, 3-(6-chloro-2-(3-fluoropyridin-2-yl)-3,4-dihydro-2H-chromen-7-yl)-5-cyclopropyl-7-(2-hydroxypropan-2-yl)-3,4-dihydropyrido[4,3-d]pyrimidin-2(1H)-one]
105 | O=C(NC1CC1)c1cc2c(c(C3CC3)n1)CN(c1cc3c(cc1Cl)CCC(c1ncccc1F)O3)C(=O)N2 (stereo not drawn) [Example 76, 3-(6-chloro-2-(3-fluoropyridin-2-yl)-3,4-dihydro-2H-chromen-7-yl)-N,5-dicyclopropyl-2-oxo-1,2,3,4-tetrahydropyrido[4,3-d]pyrimidine-7-carboxamide]
105 | O=C1Nc2cncc(C(F)(F)F)c2CN1c1cc2c(cc1Cl)CCC(c1ncccc1F)O2 (stereo not drawn) [Example 78, 3-(6-chloro-2-(3-fluoropyridin-2-yl)-3,4-dihydro-2H-chromen-7-yl)-5-(trifluoromethyl)-3,4-dihydropyrido[3,4-d]pyrimidin-2(1H)-one]
